The record followed here is article PMC9940101, “Elucidation of the (R)-enantiospecific benzylisoquinoline alkaloid biosynthetic pathways in sacred lotus (Nelumbo nucifera)” (Scientific Reports, 2023).

For assay [1], the target named is T1, NnOMT1 (Nelumbo nucifera, UniProt A0A3G1RSF0).
T1 construct: gene 6OMT
As to the kind of experiment: substrate conversion by LC-MS/MS. It counts as biochemical. The conditions noted are these: 100 µM substrate, 200 µM SAM, pH 7.5, 30 °C; 6-O-methylation.

For assay [2], the system named is NnOMT7. The experiment in a line: LC-MS/MS product quantification, Michaelis-Menten fit. In kind it is biochemical, Nelumbo nucifera. The conditions noted are these: 400 µM SAM, 100 mM Tris-HCl pH 7.5, 30 °C, 5 min.

T1 sequence (A0A3G1RSF0 entry or part of it): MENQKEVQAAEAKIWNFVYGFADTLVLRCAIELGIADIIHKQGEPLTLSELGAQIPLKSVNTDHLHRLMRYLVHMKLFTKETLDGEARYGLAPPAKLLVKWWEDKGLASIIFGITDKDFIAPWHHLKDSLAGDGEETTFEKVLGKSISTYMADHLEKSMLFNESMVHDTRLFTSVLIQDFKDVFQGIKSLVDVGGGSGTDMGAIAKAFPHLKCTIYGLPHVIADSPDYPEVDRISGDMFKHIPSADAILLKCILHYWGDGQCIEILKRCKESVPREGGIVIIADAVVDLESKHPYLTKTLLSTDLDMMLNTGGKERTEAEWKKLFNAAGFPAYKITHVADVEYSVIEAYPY

For `Oc1ccc(CC2NCCc3cc(O)c(O)cc32)cc1` (racemic) [(R,S)-norcoclaurine], the “substrate conversion by LC-MS/MS” value in assay [1] was “NnOMT1 activity with racemic norcoclaurine was higher compared with (S)-norcoclaurine”. The Km in assay [2] (6-O-methylation) is 143 ± 30 µM.

In the case of `Oc1ccc(C[C@@H]2NCCc3cc(O)c(O)cc32)cc1` [(S)-norcoclaurine], the “substrate conversion by LC-MS/MS” value in assay [1] is listed as “NnOMT1 activity with racemic norcoclaurine was higher compared with (S)-norcoclaurine”.

For the compound `COc1cc2c(cc1O)[C@H](Cc1ccc(O)cc1)N(C)CC2` [(S)-N-methylcoclaurine], the Km in assay [2] (7-O-methylation) turned out to be 48 ± 4 µM.

Usually Km stands for the concentration of substrate that gives half-maximal velocity.
